# Earlier results in patent publication US11235084B2, “Embolic microspheres” (Varian Medical Systems, Inc., priority 2017, dated 2022).
row,Structure (SMILES),reported pKa values at 25° C.
1,CCN1CCOCC1 [N-ethylmorpholine],7.8
2,NCC(=O)NCC(=O)O [glycylglycine],8.3

# The next lines start with the values.
row,reported pKa values at 25° C.,Structure (SMILES)
1,9.1,"CC(C)(CO)NCC(O)CS(=O)(=O)O (centres unmarked) [AMPSO, N-(1,1-dimethyl-2-hydroxyethyl)-3-amino-2-hydroxypropanesulfonic acid]"
2,9.4,"O=S(=O)(O)CCNC1CCCCC1 [CHES, 2-(cyclohexylamino)-1-ethanesulfonic acid]"
3,10.5,"O=S(=O)(O)CCCNC1CCCCC1 [CAPS, 3-(cyclohexylamino)-1-propanesulfonic acid]"
